# Measured values published in patent US20170349540A1, “HISTONE DEACETYLASE INHIBITORS” (The General Hospital Corporation, priority 2014, published 2017).
# Test system: HDAC
# Assay: In vivo PET imaging: blocking of whole brain uptake of the radiolabeled compound of Example 3
# Parameters: species or system rat
# Experimental: Male Sprague-Dawley rats were utilized in pairs, anesthetized with inhalational isoflurane (Forane) at 3% in a carrier of 1.5-2 L/min medical oxygen and maintained at 2% isoflurane for the duration of the scan. The rats were arranged head-to-head in a Triumph Trimodality PET/CT/SPECT scanner (Gamma Medica, Northridge, Calif.). Rats were injected standard references or vehicle via a lateral tail vein catheterization at the start of Positron Emission Tomography (PET) acquisition. Dynamic PET acquisition lasted for 60 min and was followed by computed tomography (CT) for anatomic co-registration. PET data were reconstructed using a 3D-MLEM method resulting in a full width at half-maximum resolution of 1 mm. Reconstructed images were exported from the scanner in DICOM format along with an anatomic CT for rodent studies. These files were imported to PMOD (PMOD Technologies, Ltd.) and manually coregistered using six degrees of freedom.
# Volumes of interest (VOIs) were drawn manually as spheres in brain regions guided by high resolution CT structural images and summed PET data, with a radius no less than 1 mm to minimize partial volume effects. Time-activity curves (TACs) were exported in terms of decay corrected activity per unit volume at specified time points with gradually increasing intervals. The TACs were expressed as percent injected dose per unit volume for analysis.
# Summed PET images following injection with the ^11C radiolabeled (E)-3-(4-((((1r,3R,5S)-adamantan-1-ylmethyl)(methyl)amino)methyl)phenyl)-N-hydroxyacrylamide (Example 3) at baseline or after 5 minutes pretreatment with 0.5 or 2.0 mg/kg unlabeled (E)-3-(4-((((1 r,3R,5 S)-adamantan-1-ylmethyl) (methyl)amino)methyl)phenyl)-N-hydroxyacrylamide illustrate brain uptake and self-blocking, as shown in FIG. 1A. Whole-brain tracer uptake levels, normalized to uptake at 10 min, were altered by 10-40% in self-blocking experiments with 5 min pretreatment with 1.0 μg-2.0 mg/kg unlabeled (E)-3-(4-((((1r,3R,5S)-adamantan-1-ylmethyl) (methyl)amino)methyl)phenyl)-N-hydroxyacrylamide, as shown in FIGS. 1B and 1C. This quantification provides a means to measure occupancy of HDAC targets on the basis of blocked binding of the radiolabeled compound of Example 3.
# Whole brain uptake of the radiotracer of Example 3 was measured 4 h after acute systemic treatment.
smiles,measurement,setting,value
"CN(Cc1ccc(/C=C/C(=O)Nc2ccccc2N)cc1)CC12CC3CC(CC(C3)C1)C2 [Example 2, (E)-3-(4-((((3r,5r,7r)-adamantan-1-ylmethyl)(methyl)amino)methyl)phenyl)-N-(2-aminophenyl)acrylamide]",block of whole brain tracer uptake,"0.1 mg/kg (lowest tested dosage), 4 h after acute systemic treatment, radiotracer of Example 3, relative to vehicle-blocked baseline",25%
same,HDAC occupancy in the brain,"0.1 mg/kg i.p., based on PET imaging experiments",~25%
same,tracer uptake returning to baseline by (time post treatment),"0.1 mg/kg, radiotracer of Example 3",≤ 7.5 h
